Test results published in patent US20150376172A1, “FLUORO-[1,3]OXAZINES AS BACE1 INHIBITORS” (HOFFMANN-LA ROCHE INC., priority 2013, published 2015).
Where a name gives a salt, the structure may show the parent alone.

Target: T1, BACE1 (Homo sapiens, UniProt P56817)
T1 construct: endogenous in cells; host or cells: HEK293 APP cells
Experiment: Cellular Aβ-lowering assay (Abeta 40 AlphaLISA)
Type: cell-based
Conditions: HEK293 APP cells; 18-20 hrs incubation; Aβ 40 in culture supernatants by AlphaLISA; read-out: BACE1 cell act. Aβ40 IC50
Description: Cellular Aβ-lowering assay:
The Abeta 40 AlphaLISA Assay can be used. The HEK293 APP cells were seeded in 96 well Microtiter plates in cell culture medium (Iscove's, plus 10% (v/v) fetal bovine serum, penicillin/streptomycin) to about 80% confluency and the compounds were added at a 3× concentration in ⅓ volume of culture medium (final DMSO concentration was kept at 1% v/v). After 18-20 hrs incubation at 37° C. and 5% CO2 in a humidified incubator, the culture supernatants were harvested for the determination of Aβ 40 concentrations using Perkin-Elmer Human Amyloid beta 1-40 (high specificity) Kit (Cat#AL275C).
In a Perkin-Elmer White Optiplate-384 (Cat#6007290), 2 ul culture supernatants were combined with 2 μl of a 10× AlphaLISA Anti-hAβAcceptor beads+Biotinylated Antibody Anti-Aβ1-40 Mix (50 μg/mL/5 nM). After 1 hour room temperature incubation, 16 μl of a 1.25× preparation of Streptavidin (SA) Donor beads (25 μg/mL) were added and incubated for 30 minutes in the Dark. Light Emission at 615 nm was then recorded using EnVision-Alpha Reader. Levels of Aβ 40 in the culture supernatants were calculated as percentage of maximum signal (cells treated with 1% DMSO without inhibitor). The IC50 values were calculated using the Excel XLfit software.

T1 sequence (P56817 46-501): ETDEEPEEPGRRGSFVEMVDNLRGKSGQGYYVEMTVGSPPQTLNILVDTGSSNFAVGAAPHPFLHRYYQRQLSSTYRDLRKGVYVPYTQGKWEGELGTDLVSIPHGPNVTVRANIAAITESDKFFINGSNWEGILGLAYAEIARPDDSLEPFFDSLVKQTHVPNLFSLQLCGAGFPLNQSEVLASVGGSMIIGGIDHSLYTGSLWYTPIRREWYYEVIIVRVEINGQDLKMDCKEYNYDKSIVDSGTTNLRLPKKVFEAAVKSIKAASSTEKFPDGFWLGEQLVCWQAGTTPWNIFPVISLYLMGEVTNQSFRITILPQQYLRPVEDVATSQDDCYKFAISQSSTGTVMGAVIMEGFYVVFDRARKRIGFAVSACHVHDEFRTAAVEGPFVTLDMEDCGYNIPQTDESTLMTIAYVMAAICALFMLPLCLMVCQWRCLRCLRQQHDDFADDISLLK

| SMILES | IC50 [nM] |
| --- | --- |
| C[C@@]1(c2cc(-c3cncc(C#N)c3)ccc2F)C[C@@H](C(F)(F)F)OC(N)=N1 [Example 12, 5-(3-((4S,6S)-2-Amino-4-methyl-6-(trifluoromethyl)-5,6-dihydro-4H-1,3-oxazin-4-yl)-4-fluorophenyl)nicotinonitrile] | 900 |
| C[C@@]1(c2cc(C#Cc3cnc(C#N)nc3)ccc2F)C[C@@H](C(F)(F)F)OC(N)=N1 [Example 54, 5-[2-[3-[(4S,6S)-2-amino-4-methyl-6-(trifluoromethyl)-5,6-dihydro-1,3-oxazin-4-yl]-4-fluorophenyl]ethynyl]pyrimidine-2-carbonitrile] | 1360 |
| NC1=N[C@](CF)(c2cc(C#Cc3cncc(Cl)c3)ccc2F)C[C@@H](C(F)(F)F)O1 [Example 61, (4S,6S)-4-(5-((5-Chloropyridin-3-yl)ethynyl)-2-fluorophenyl)-4-(fluoromethyl)-6-(trifluoromethyl)-5,6-dihydro-4H-1,3-oxazin-2-amine] | 3490 |
| N#Cc1ccc(C#Cc2ccc(F)c([C@]3(CF)C[C@@H](C(F)(F)F)OC(N)=N3)c2)cc1 [Example 60, 4-((3-((4S,6S)-2-Amino-4-(fluoromethyl)-6-(trifluoromethyl)-5,6-dihydro-4H-1,3-oxazin-4-yl)-4-fluorophenyl)ethynyl)benzonitrile] | 650 |
| COc1ncc(C#Cc2ccc(F)c([C@]3(C)C[C@@H](C(F)(F)F)OC(N)=N3)c2)cn1 [Example 53, (4S,6S)-4-[2-fluoro-5-[2-(2-methoxypyrimidin-5-yl)ethynyl]phenyl]-4-methyl-6-(trifluoromethyl)-5,6-dihydro-1,3-oxazin-2-amine] | 5650 |
| C[C@@]1(c2cc(C#Cc3ncc(C#N)s3)ccc2F)C[C@@H](C(F)(F)F)OC(N)=N1 [Example 67, 2-((3-((4S,6S)-2-Amino-4-methyl-6-(trifluoromethyl)-5,6-dihydro-4H-1,3-oxazin-4-yl)-4-fluorophenyl)ethynyl)thiazole-5-carbonitrile] | 950 |
| Cc1cc(C#Cc2ccc(F)c([C@]3(CF)C[C@@H](C(F)(F)F)OC(N)=N3)c2)sn1 [Example 64, (4S,6S)-4-(2-Fluoro-5-((3-methylisothiazol-5-yl)ethynyl)phenyl)-4-(fluoromethyl)-6-(trifluoromethyl)-5,6-dihydro-4H-1,3-oxazin-2-amine] | 270 |
| C[C@@]1(c2cc(-c3nc4ccc(Cl)cc4o3)ccc2F)C[C@@H](C(F)(F)F)OC(N)=N1 [Example 39, (4S,6S)-4-(5-(6-Chlorobenzo[d]oxazol-2-yl)-2-fluorophenyl)-4-methyl-6-(trifluoromethyl)-5,6-dihydro-4H-1,3-oxazin-2-amine] | 530 |
| CC#Cc1cncc(-c2csc([C@]3(C)C[C@@H](C(F)(F)F)OC(N)=N3)c2)c1 [Example 29, (4S,6S)-4-Methyl-4-(4-(5-(prop-1-ynyl)pyridin-3-yl)thiophen-2-yl)-6-(trifluoromethyl)-5,6-dihydro-4H-1,3-oxazin-2-amine Hydrochloride] | 310 |
| C[C@@]1(c2cc(C#Cc3ccnc(Cl)c3)ccc2F)C[C@@H](C(F)(F)F)OC(N)=N1 [Example 20, (4S,6S)-4-(5-((2-Chloropyridin-4-yl)ethynyl)-2-fluorophenyl)-4-methyl-6-(trifluoromethyl)-5,6-dihydro-4H-1,3-oxazin-2-amine] | 250 |
| C[C@@]1(c2cc(C#Cc3cccnc3)ccc2F)C[C@@H](C(F)(F)F)OC(N)=N1 [Example 22, (4S,6S)-4-(2-Fluoro-5-(pyridin-3-ylethynyl)phenyl)-4-methyl-6-(trifluoromethyl)-5,6-dihydro-4H-1,3-oxazin-2-amine] | 470 |
| CCn1cc(C#Cc2ccc(F)c([C@]3(CF)C[C@@H](C(F)(F)F)OC(N)=N3)c2)cn1 [Example 58, (4S,6S)-4-(5-((1-Ethyl-1H-pyrazol-4-yl)ethynyl)-2-fluorophenyl)-4-(fluoromethyl)-6-(trifluoromethyl)-5,6-dihydro-4H-1,3-oxazin-2-amine] | 25700 |
| CC#Cc1cncc(-c2ccc(F)c([C@]3(C)C[C@@H](C(F)(F)F)OC(N)=N3)c2)c1 [Example 14, (4S,6S)-4-(2-Fluoro-5-(5-(prop-1-ynyl)pyridin-3-yl)phenyl)-4-methyl-6-(trifluoromethyl)-5,6-dihydro-4H-1,3-oxazin-2-amine] | 250 |
| C[C@@]1(c2sc(-c3cccc(C#N)c3)cc2Cl)C[C@@H](C(F)(F)F)OC(N)=N1 [Example 33, 3-(5-((4S,6S)-2-Amino-4-methyl-6-(trifluoromethyl)-5,6-dihydro-4H-1,3-oxazin-4-yl)-4-chlorothiophen-2-yl)benzonitrile] | 510 |
| CC#Cc1cncc(-c2cc(Cl)c([C@]3(C)C[C@@H](C(F)(F)F)OC(N)=N3)s2)c1 [Example 30, (4S,6S)-4-(3-Chloro-5-(5-(prop-1-ynyl)pyridin-3-yl)thiophen-2-yl)-4-methyl-6-(trifluoromethyl)-5,6-dihydro-4H-1,3-oxazin-2-amine] | 620 |
| COc1cc(C#N)cnc1C#Cc1ccc(F)c([C@]2(CF)C[C@@H](C(F)(F)F)OC(N)=N2)c1 [Example 57, 6-((3-((4S,6S)-2-Amino-4-(fluoromethyl)-6-(trifluoromethyl)-5,6-dihydro-4H-1,3-oxazin-4-yl)-4-fluorophenyl)ethynyl)-5-methoxynicotinonitrile] | 520 |
| Cc1cc(F)c([C@]2(C)C[C@@H](C(F)(F)F)OC(N)=N2)cc1-c1cccc(C#N)c1F [Example 74, 5′-((4S,6S)-2-Amino-4-methyl-6-(trifluoromethyl)-5,6-dihydro-4H-1,3-oxazin-4-yl)-2,4′-difluoro-2′-methylbiphenyl-3-carbonitrile] | 3560 |

Compounds with a lower IC50, results first:

| IC50 [nM] | SMILES |
| --- | --- |
| 190 | C[C@@]1(c2cc(-c3cncnc3)c(F)cc2F)C[C@@H](C(F)(F)F)OC(N)=N1 [Example 17, (4S,6S)-4-(2,4-Difluoro-5-(pyrimidin-5-yl)phenyl)-4-methyl-6-(trifluoromethyl)-5,6-dihydro-4H-1,3-oxazin-2-amine] |
| 160 | C[C@@]1(c2cc(C#Cc3nn(C(F)F)cc3Cl)ccc2F)C[C@@H](C(F)(F)F)OC(N)=N1 [Example 68, (4S,6S)-4-(5-((4-chloro-1-(difluoromethyl)-1H-pyrazol-3-yl)ethynyl)-2-fluorophenyl)-4-methyl-6-(trifluoromethyl)-5,6-dihydro-4H-1,3-oxazin-2-amine] |
| 150 | C[C@]1(c2cc(NC(=O)c3ccc(C#N)cn3)ccc2F)N=C(N)O[C@@H](C(F)(F)F)[C@@H]1F [Example 1, N-(3-((4R,5R,6R)-2-Amino-5-fluoro-4-methyl-6-(trifluoromethyl)-5,6-dihydro-4H-1,3-oxazin-4-yl)-4-fluorophenyl)-5-cyanopicolinamide] |
| 150 | C[C@@]1(c2cc(-c3cncc(Cl)c3)ccc2F)C[C@@H](C(F)(F)F)OC(N)=N1 [Example 13, (4S,6S)-4-(5-(5-Chloropyridin-3-yl)-2-fluorophenyl)-4-methyl-6-(trifluoromethyl)-5,6-dihydro-4H-1,3-oxazin-2-amine] |
| 120 | C[C@@]1(c2cc(-c3cccnc3F)c(F)cc2F)C[C@@H](C(F)(F)F)OC(N)=N1 [Example 18, (4S,6S)-4-(2,4-Difluoro-5-(2-fluoropyridin-3-yl)phenyl)-4-methyl-6-(trifluoro-methyl)-5,6-dihydro-4H-1,3-oxazin-2-amine] |
| 88 | C[C@@]1(c2cc(NC(=O)c3ccc(C#N)cn3)cs2)C[C@@H](C(F)(F)F)OC(N)=N1 [Example 35, N-(5-((4S,6S)-2-Amino-4-methyl-6-(trifluoromethyl)-5,6-dihydro-4H-1,3-oxazin-4-yl)thiophen-3-yl)-5-cyanopicolinamide] |
| 77 | C[C@@]1(c2cc(C#Cc3ncc(Cl)cn3)ccc2F)C[C@@H](C(F)(F)F)OC(N)=N1 [Example 23, (4S,6S)-4-(5-((5-Chloropyrimidin-2-yl)ethynyl)-2-fluorophenyl)-4-methyl-6-(trifluoromethyl)-5,6-dihydro-4H-1,3-oxazin-2-amine] |
| 33 | C[C@@]1(c2cc(NC3CCc4cc(C#N)cnc43)ccc2F)C[C@@H](C(F)(F)F)OC(N)=N1 (stereo partly drawn) [Example 36, 7-(3-((4S,6S)-2-Amino-4-methyl-6-(trifluoromethyl)-5,6-dihydro-4H-1,3-oxazin-4-yl)-4-fluorophenylamino)-6,7-dihydro-5H-cyclopenta[b]pyridine-3-carbonitrile] |
| 12 | COc1cnc(C(=O)Nc2ccc(F)c([C@@]3(C)N=C(N)O[C@H](C(F)(F)F)[C@@H]3F)c2)cn1 [Example 5, N-(3-((4R,5R,6S)-2-Amino-5-fluoro-4-methyl-6-(trifluoromethyl)-5,6-dihydro-4H-1,3-oxazin-4-yl)-4-fluorophenyl)-5-methoxypyrazine-2-carboxamide] |
| 2 | C[C@]1(c2cc(NC(=O)c3ccc(C#N)cn3)ccc2F)N=C(N)O[C@H](C(F)(F)F)[C@@H]1OCC(F)(F)F [Example 8, N-(3-((4R,5R,6S)-2-Amino-4-methyl-5-(2,2,2-trifluoroethoxy)-6-(trifluoromethyl)-5,6-dihydro-4H-1,3-oxazin-4-yl)-4-fluorophenyl)-5-cyanopicolinamide] |
